The results in this text go back to PubChem BioAssay (NCI).

Molecules are shown by their SMILES.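 Interpolation was linear, between the two tested concentrations surrounding the appropriate level; five concentrations were tested over 48 hours in 96-well plates. Here, GI50 denotes the concentration required for 50% inhibition of growth. The concentration for full growth arrest is given as TGI.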

Among the test systems are HCT-15 colon; CCRF-CEM leukemia; UACC-62 melanoma; NCI-H23 lung; 786-0 renal; SF-295 CNS; SR leukemia; COLO 205 colon; OVCAR-4 ovarian; SNB-19 CNS.
What all share (assay): NCI-60 cell line screen, 48 h

As to `NS(=O)(=O)c1ccc(-n2nc(-c3ccc(Cl)cc3)cc2C2=CC(=O)C=CC2=O)cc1`, the GI50 in the assay on HCT-15 colon was 16.1 µM; in the assay on CCRF-CEM leukemia it was 3.57 µM; with UACC-62 melanoma it was 14.2 µM; with NCI-H23 lung, 18 µM; with 786-0 renal, 19.8 µM; in the assay on SF-295 CNS it was 25.1 µM. In addition, the GI50 in the assay on SR leukemia was 26.7 µM. The TGI in the assay with HCT-15 colon is 32.2 µM; with CCRF-CEM leukemia, greater than 100 µM; in the assay with UACC-62 melanoma, 34.1 µM; in the assay with NCI-H23 lung it was 42.1 µM; in the assay with 786-0 renal, 36 µM; in the assay on SF-295 CNS it was 63.2 µM. In the assay on SR leukemia, this molecule displayed a TGI greater than 100 µM.
`CC1=C(C)C(=O)C(C(C)C2=C(C)C(=O)C(C)=C(C)C2=O)=C(C)C1=O`: the GI50 was 15.2 µM in the assay on HCT-15 colon; 20.1 µM with CCRF-CEM leukemia; 19.3 µM in the assay with UACC-62 melanoma; 21.6 µM in the assay with NCI-H23 lung; 32.6 µM in the assay with COLO 205 colon; 50.8 µM in the assay on 786-0 renal. The GI50 in the assay on SF-295 CNS is 15.1 µM; with SR leukemia it was 7.35 µM. The TGI in the assay on HCT-15 colon is greater than 100 µM; with CCRF-CEM leukemia it was 50.7 µM; with UACC-62 melanoma, greater than 100 µM; in the assay with NCI-H23 lung it was greater than 100 µM; in the assay on COLO 205 colon it was greater than 100 µM; with 786-0 renal it was greater than 100 µM. For the same molecule, the TGI was greater than 100 µM in the assay with SF-295 CNS and 31.7 µM with SR leukemia.
With `C=C1C(=O)O[C@H]2[C@H]1CC/C(Cn1cc(CCC)nn1)=C\CC[C@@]1(C)O[C@@H]21`, the GI50 with HCT-15 colon is 2.9 µM; in the assay on CCRF-CEM leukemia, 3 µM; in the assay on NCI-H23 lung, 13.6 µM; with COLO 205 colon, 5.22 µM; with OVCAR-4 ovarian, 9.46 µM; in the assay on SNB-19 CNS, 18.8 µM. Besides, the GI50 with 786-0 renal is 11.3 µM; in the assay with SF-295 CNS, 18.5 µM; with SR leukemia it was 2.88 µM. Besides, the TGI in the assay on HCT-15 colon came out at 12.3 µM; in the assay on CCRF-CEM leukemia, 9.71 µM; in the assay with NCI-H23 lung, 32 µM; in the assay with COLO 205 colon, 17.1 µM; with OVCAR-4 ovarian, 22.7 µM; in the assay on SNB-19 CNS it was 38.1 µM. Further, the TGI came out at 25.5 µM with 786-0 renal, 39.2 µM with SF-295 CNS and 26.1 µM in the assay on SR leukemia.
Consider `Nc1nc(Cl)nc2c1ncn2C1O[C@H](CO)[C@@H](O)[C@@H]1F` (some centres not stated), for which the GI50 in the assay on HCT-15 colon is 4.73 µM; in the assay on CCRF-CEM leukemia, 0.0281 µM; with UACC-62 melanoma, 0.362 µM; in the assay on COLO 205 colon it was 0.523 µM; with OVCAR-4 ovarian it was greater than 100 µM; in the assay on SNB-19 CNS, 0.216 µM. For the same molecule, the GI50 in the assay with 786-0 renal was 0.092 µM; with SF-295 CNS, 2.87 µM; in the assay with SR leukemia it was 0.387 µM. Also, the TGI with HCT-15 colon, with CCRF-CEM leukemia, in the assay on UACC-62 melanoma, in the assay with COLO 205 colon, with OVCAR-4 ovarian and in the assay with SNB-19 CNS was greater than 100 µM throughout. Further, the TGI is 0.486 µM in the assay with 786-0 renal, greater than 100 µM in the assay on SF-295 CNS and greater than 100 µM in the assay with SR leukemia.
On to `CCCCCCCCSC1=CC(=O)C(OC)=C(OC)C1=O`, for which the GI50 was 2.27 µM in the assay with HCT-15 colon; 3.5 µM in the assay with UACC-62 melanoma; 3.36 µM with NCI-H23 lung; 4.17 µM in the assay with COLO 205 colon; 1.27 µM with OVCAR-4 ovarian; 13.7 µM in the assay on SNB-19 CNS. For the same molecule, the figures for the GI50 in the assay with 786-0 renal, with SF-295 CNS and in the assay on SR leukemia were 7.86 µM, 6.75 µM and 2.27 µM, respectively. Further, the TGI in the assay with HCT-15 colon amounted to 8.58 µM; with UACC-62 melanoma, 13.9 µM; in the assay with NCI-H23 lung, 16.2 µM; in the assay on COLO 205 colon, 14.6 µM; with OVCAR-4 ovarian, 3.14 µM; in the assay with SNB-19 CNS it was 27.3 µM. Further, the TGI with 786-0 renal was 20.1 µM; with SF-295 CNS, 31.4 µM; with SR leukemia, greater than 100 µM.
As to `CCCCCCCCCCCCC(Br)C(=O)SCCNC(=O)CCNC(=O)[C@@H](O)C(C)(C)COP(=O)(O)OP(=O)(O)OCC1OC(n2cnc3c(N)ncnc32)C(O)C1OP(=O)(O)O` (some centres not stated), the TGI in the assay with HCT-15 colon, with CCRF-CEM leukemia, in the assay on UACC-62 melanoma, in the assay on NCI-H23 lung, with COLO 205 colon and in the assay on OVCAR-4 ovarian was greater than 56.5 µM in each case. The TGI in the assay with SNB-19 CNS, in the assay on 786-0 renal and in the assay on SF-295 CNS was greater than 56.5 µM in each case.
Turning to `O=C(/C=C/c1ccccc1F)C(c1ccccc1)c1ccccc1`, the TGI with HCT-15 colon came to 23.8 µM; with CCRF-CEM leukemia it was 6.32 µM; in the assay on UACC-62 melanoma it was 4.56 µM; in the assay on SNB-19 CNS, 5.46 µM; in the assay on 786-0 renal, 5.8 µM; with SF-295 CNS it was 5.91 µM. In the assay on SR leukemia, this molecule had a TGI of 41.9 µM.
In the case of `CC(C)[C@]12O[C@H]1[C@@H]1O[C@]13[C@]1(O[C@H]1C[C@H]1c4c(C(=O)c5ccccc5)oc(OC(=O)c5ccccc5)c4CC[C@@]13C)[C@@H]2O`, the GI50 was 0.0291 µM in the assay on HCT-15 colon; 0.0429 µM in the assay with CCRF-CEM leukemia; 0.0134 µM in the assay on UACC-62 melanoma; less than 0.0105 µM in the assay on NCI-H23 lung; 0.0313 µM in the assay with OVCAR-4 ovarian; 0.176 µM in the assay with SNB-19 CNS. The GI50 is 0.0352 µM in the assay with 786-0 renal, 0.0653 µM with SF-295 CNS and 0.0303 µM in the assay on SR leukemia. Also, the TGI in the assay on HCT-15 colon was greater than 100 µM; with UACC-62 melanoma, 0.0333 µM; in the assay with NCI-H23 lung it was 0.111 µM; with OVCAR-4 ovarian, greater than 88.4 µM; in the assay with SNB-19 CNS it was 36.6 µM; in the assay with 786-0 renal, 5.22 µM. In the assay on SF-295 CNS, this molecule displayed a TGI of 2.75 µM.
As to `CC(C)(C)c1cc(C(O)(C(F)(F)F)C(F)(F)F)c2c(c1)C(C(F)(F)F)(C(F)(F)F)OC(c1ccccc1)(C(C)(C)C)N2` (configuration not stated), the TGI stood at 13.7 µM with HCT-15 colon; 14.6 µM in the assay with UACC-62 melanoma; 10.3 µM with NCI-H23 lung; 16.1 µM in the assay with COLO 205 colon; 46.3 µM in the assay on OVCAR-4 ovarian; 17.7 µM in the assay on SNB-19 CNS. The figures for the TGI with 786-0 renal, in the assay with SF-295 CNS and with SR leukemia were greater than 100 µM, 19.8 µM and 6.69 µM, respectively.
In the case of `O=C1C(c2ccccc2)=C(c2ccccc2)C(c2ccccc2)/C1=C1\C(=O)C(c2ccccc2)=C(c2ccccc2)C1c1ccccc1` (configuration not stated), the TGI in the assay with HCT-15 colon, in the assay with UACC-62 melanoma, in the assay with NCI-H23 lung, in the assay on COLO 205 colon, with OVCAR-4 ovarian and in the assay with 786-0 renal was greater than 100 µM throughout. For the same molecule, the TGI with SF-295 CNS and in the assay with SR leukemia was greater than 100 µM in each case.
In the case of `Cc1cc2c(=O)cc(-c3ccc(Cl)cc3)oc2c(C(=O)O)c1C`, the TGI in the assay with HCT-15 colon, in the assay on CCRF-CEM leukemia, with UACC-62 melanoma, in the assay with NCI-H23 lung, in the assay with COLO 205 colon and in the assay with OVCAR-4 ovarian was greater than 100 µM in each case. The TGI in the assay on SNB-19 CNS, in the assay on 786-0 renal and with SF-295 CNS was greater than 100 µM throughout.
